From patent US20050175550A1, “Compositions for oral use” (priority 2000, published 2005) come the findings set out here.

Each structure is given as a SMILES string.

This test relates to Streptococcus sobrinus MT8246. The test is described as follows: Minimum growth-inhibiting concentration on agar media (Example 2). The settings on record: S. sobrinus MT8246; Brain Heart Infusion, 5% CO2. The format is cell-based. How it is done: 3 ml of GAM broth (Nissui Medical) containing 5 μg/ml of hemin and 1 μg/ml of menadione was separately inoculated with one platinum loop each of subcultures of causative bacteria of periodontal disease, strains Porphyromonas gingivalis W83, W50, ATCC49417 and ATCC33277, strain Actinobacillus actinomycetemcomitans Y4, and strains Fusobacterium nucleatum ATCC10953 and ATCC25586, followed by incubation at 37° C. under anaerobic conditions (10% CO2, 10% H2 and 80% N2) overnight. Then, the resulting cultures were diluted to 10^−8, 10^−6, 10^−4 and 10^−3 to make inoculating bacterial solutions, respectively.
Agar media containing 400, 200, 100, 50, 25, 10 and 5 μg/ml of TFM, respectively, were prepared and streaked, about 2 cm long, with a platinum loop each of the above-prepared inoculating bacterial solutions, followed by incubation under the same anaerobic conditions as above at 37° C. for 48-72 hours to evaluate growth of the bacteria.
Streptococcus sobrinus MT8246, Streptococcus sanuis ST160, Streptococcus mutans Xc and Streptococcus salivarius HHT were likewise incubated in Brain Heart Infusion (Difco) in the same manner as above except that the incubation was conducted in the presence of 5% CO2 to evaluate the growth.

In the case of `N[C@@H](CCSC(F)(F)F)C(=O)O` [TFM, Trifluoromethionine], the Minimum growth-inhibiting concentration was over 400 µg/mL.
